From article PMC11589570, “Critical assessment of LC3/GABARAP ligands used for degrader development and ligandability of LC3/GABARAP binding pockets” (Nature Communications, 2024)
“And” between values parts separate entries of the source, which are not always exact repeats. Equal values may be shown once.

How the values were obtained:
Format in all cases: binding
[1] = target: T1, KIF11 (Homo sapiens, UniProt P52732); assay: Chemoproteomic competition pulldown assay (affinity matrix, LC-MS/MS) in HEK293T lysate; details: over 4000 proteins identified
T1 construct: endogenous in cells; host or cells: HEK293 / HEK293T (ATCC; CRL-11268) lysate
T1 sequence (P52732 1-1056): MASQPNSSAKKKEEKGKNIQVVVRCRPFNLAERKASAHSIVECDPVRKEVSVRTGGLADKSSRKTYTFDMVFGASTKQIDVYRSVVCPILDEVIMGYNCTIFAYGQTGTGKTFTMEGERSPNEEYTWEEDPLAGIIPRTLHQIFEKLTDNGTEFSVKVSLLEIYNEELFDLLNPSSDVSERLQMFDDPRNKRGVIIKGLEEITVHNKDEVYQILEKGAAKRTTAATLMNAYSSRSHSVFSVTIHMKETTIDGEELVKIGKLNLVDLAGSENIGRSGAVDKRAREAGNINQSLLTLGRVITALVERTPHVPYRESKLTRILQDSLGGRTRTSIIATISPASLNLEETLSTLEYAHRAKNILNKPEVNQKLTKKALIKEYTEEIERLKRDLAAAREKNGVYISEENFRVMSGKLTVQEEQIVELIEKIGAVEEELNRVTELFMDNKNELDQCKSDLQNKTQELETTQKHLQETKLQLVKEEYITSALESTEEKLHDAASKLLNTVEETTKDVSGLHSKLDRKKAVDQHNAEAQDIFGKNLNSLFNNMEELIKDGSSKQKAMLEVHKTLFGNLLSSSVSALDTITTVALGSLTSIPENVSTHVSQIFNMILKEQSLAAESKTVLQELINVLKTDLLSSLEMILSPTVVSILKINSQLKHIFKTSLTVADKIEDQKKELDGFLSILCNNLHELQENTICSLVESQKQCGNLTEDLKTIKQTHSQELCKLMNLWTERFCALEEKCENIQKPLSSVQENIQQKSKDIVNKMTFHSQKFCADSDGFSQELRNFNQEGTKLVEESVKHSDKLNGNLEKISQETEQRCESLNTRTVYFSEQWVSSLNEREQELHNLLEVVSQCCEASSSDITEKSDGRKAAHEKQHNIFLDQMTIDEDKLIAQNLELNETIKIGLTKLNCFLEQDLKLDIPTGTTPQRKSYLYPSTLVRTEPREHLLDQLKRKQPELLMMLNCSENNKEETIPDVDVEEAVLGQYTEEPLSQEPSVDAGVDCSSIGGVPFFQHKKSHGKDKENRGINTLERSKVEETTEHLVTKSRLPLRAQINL

[2] = tested on: LC3/GABARAP; assay: as above; details: HEK293T cell lysate
Experimental: Preparation of Affinity Matrix 10O5 and 8F20: Compounds 18 and 19 (1 µM) were linked to DMSO-washed NHS-activated ( ~ […] beads) sepharose beads (1 mL) and triethylamine (20 µL) in DMSO (2 mL) on an end-over-end shaker overnight at RT in the dark. Aminoethanol (50 µL) was then added to inactivate the remaining NHS-activated carboxylic acid groups. […] Successful immobilization was controlled by LC-MS and Kaiser-test[46].
Preparation of cell lysates for affinity pulldown assays: HEK293 cells (ATCC; CRL-11268) were cultured in DMEM (PAN Biotech). All media were supplemented with 10% FBS (PAN Biotech) and cells were internally tested for Mycoplasma contamination. […] The protein amount of cell lysates was determined by Bradford assay and adjusted to a concentration of 5 mg/mL[46]. […]
LC-MSMS measurement of (competition) pulldown assays: Peptides were analyzed via LC-MS/MS on a Dionex Ultimate3000 nano HPLC coupled to an Orbitrap Fusion Lumos mass spectrometer, operated via the Thermo Scientific Xcalibur software. […]
The mass spectrometer was operated in data dependent mode, automatically switching between MS1 and MS2 spectra. […] Up to 12 peptide precursors were isolated (isolation width of 1.2 Th, maximum injection time of 75 ms, AGC value of 2e5), fragmented by HCD using 25 % […] normalized collision energy (NCE) and analyzed in the Orbitrap at a resolution of 15,000. […]

[3] = tested on: LC3/GABARAPs (human Atg8 family); assay: FP assay with Cy5-labelled p62 LIR tracer, statements on all LC3/GABARAPs
[4] = target: T2, LC3A (Homo sapiens, UniProt Q9H492); assay: Isothermal titration calorimetry (ITC); details: rounded, rebuttal letter; Novobiocin in reverse titration
[5] = target: T2, LC3A; assay: Isothermal titration calorimetry (ITC); details: replicates 1-3, rebuttal letter
Text: To minimize nonspecific dilution heat effects, DMSO concentrations in the protein and compound samples were matched. […] For this protocol, the chamber was pre-equilibrated with the protein, and the test compounds were titrated while continuously measuring the rate of exothermic heat evolution. The heat of binding was integrated, corrected, and fitted to an independent single-binding site model based on the manufacturer’s instructions, from which thermodynamic parameters (ΔH and TΔS), equilibrium association and dissociation constants (KA and KD, respectively), and stoichiometry (n) were calculated using TA Instruments NanoAnalyze software.

SMILES | additional targets in proteome-wide pulldown [1] | enrichment / pulldown of LC3/GABARAP by affinity matrix [2] | interaction with LC3/GABARAP family members in FP displacement assay [3] | enthalpies observed in ITC experiments [4] | Enthalpy (ITC, repeated titration) ([5]; listed as LY223982) | Entropy (ITC, repeated titration) ([5]; listed as LY223982) | Stoichiometry, n (ITC, repeated titration) ([5]; listed as LY223982) | Kd ([5]; read-out: KD (ITC, repeated titration))
Cc1ccc(C(=O)N(CCCNC(=O)CCOCCOCCOCCN)[C@@H](c2nc3cc(Cl)ccc3c(=O)n2Cc2ccccc2)C(C)C)cc1 [compound 19, (R)-N-(1-amino-12-oxo-3,6,9-trioxa-13-azahexadecan-16-yl)-N-(1-(3-benzyl-7-chloro-4-oxo-3,4-dihydroquinazolin-2-yl)−2-methylpropyl)−4-methylbenzamide] | No additional targets were detected | did not enrich | – | – | – | – | – | –
COc1ccc(/C=C/CCCCOc2ccc(C(=O)c3cccc(C(=O)O)c3)cc2CCC(=O)O)cc1 [compound 20] | – | – | selective binding to LC3 family members | -7 kcal/mol | -11,64 kCal/mol and -9,814 kCal/mol | -12,88 Cal/(mol*K) and -16,4 Cal/(mol*K) and -10,29 Cal/(mol*K) | 1,011 and 1,038 and 1,021 | 11.2 µM and 11.4 µM and 10 µM
